Measurements taken from patent publication US20220089592A1, “IMIDAZO[1,2-A]PYRIDINYL DERIVATIVES AS IRAK4 INHIBITORS” (priority 2019, published 2022).

The compounds below were run against T1, IRAK4 (Homo sapiens, UniProt Q9NWZ3) (assay: 2-hour 10 μM ATP Biochemical Assay (MesoScale Detection format; IRAK4 phosphorylation of biotin labeled IRAK1 activation loop peptide)). Details: IRAK4 MSD BIOCHEMICAL (10 μM ATP) IC50 (μM), 1 nM IRAK4, 2 hours.
T1 sequence (Q9NWZ3 1-460): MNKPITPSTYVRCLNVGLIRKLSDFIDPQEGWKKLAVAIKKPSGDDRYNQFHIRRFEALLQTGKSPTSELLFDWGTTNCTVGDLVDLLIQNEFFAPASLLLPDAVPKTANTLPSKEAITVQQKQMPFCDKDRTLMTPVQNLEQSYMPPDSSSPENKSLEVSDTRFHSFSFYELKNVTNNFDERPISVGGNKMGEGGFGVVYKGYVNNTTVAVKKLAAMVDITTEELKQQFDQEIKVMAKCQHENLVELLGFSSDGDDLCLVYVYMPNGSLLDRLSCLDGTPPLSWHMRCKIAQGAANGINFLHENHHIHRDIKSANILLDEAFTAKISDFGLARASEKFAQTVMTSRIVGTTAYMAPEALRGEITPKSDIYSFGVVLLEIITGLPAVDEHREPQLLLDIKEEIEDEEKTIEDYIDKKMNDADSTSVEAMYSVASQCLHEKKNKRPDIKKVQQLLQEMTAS
Procedure: The 2-hour 10 μM ATP Biochemical Assay employs a MesoScale Detection (MSD) format.
The activity is quenched with 11 μl of 70 mM EDTA, pH 8.
To detect the phosphorylated biotinylated peptide substrate, 30 μl of the quenched reaction mixture is added to equivalent wells of a 384 well streptavidin coated MesoScale plate (Meso Scale Discovery #L21SA-1). After a 1 hour incubation of the plate for 1 hour at room temperature with gentle mixing, the plate wells are washed 3 times with 50 mM Tris, pH 7.5, 150 mM NaCl, 0.02% Tween-20.
A 25 μl volume of 1:500 anti-P-Threonine Rabbit polyclonal Antibody plus 1:500 Goat-anti-Rabbit Sulfo Tag Antibody (Meso Scale Discovery R32AB-1) in 50 mM Tris, pH 7.5, 150 mM NaCl, 0.02% Tween-20 plus 2% BSA is then added to each well. After a 1-hour incubation of the plate for 1 hour at room temperature with gentle mixing, the plate wells are washed, 3 times with 50 mM Tris, pH 7.5, 150 mM NaCl, 0.02% Tween-20. A 40 μl volume of 2×MSD Read Buffer (Meso Scale Discovery R92TC-1) is added to each well, and the plate is read immediately in an MSD Plate Reader (Meso Scale Discovery).

SMILES	IC50
CCOc1cc2nc(C3CCN(C)C(=O)C3)cn2cc1NC(=O)c1cccc(C(F)F)n1 (racemic) [Example 75, 6-(difluoromethyl)-N-(7-ethoxy-2-(1-methyl-2-oxopiperidin-4-yl)imidazo[1,2-a]pyridin-6-yl)picolinamide]	0.001 µM
C[C@H](COc1cc2nc(C3CC3)cn2cc1NC(=O)c1cccc(C(F)F)n1)n1ccccc1=O (single isomer, unassigned) [Example 7]	0.28 µM
C[C@@H](COc1cc2nc(C3CC3)cn2cc1NC(=O)c1cccc(C(F)F)n1)n1ccccc1=O (single isomer, unassigned) [Example 8]	0.14 µM
CCOc1cc2nc(CC3CCOC3)cn2cc1NC(=O)c1coc(-c2cnn(C)c2)n1 (single isomer, unassigned) [Example 251, N-(7-ethoxy-2-((tetrahydrofuran-3-yl)methyl)imidazo[1,2-a]pyridin-6-yl)-2-(1-methyl-1H-pyrazol-4-yl)oxazole-4-carboxamide]	0.002 µM
CCOc1cc2nc(CC3CCOC3)cn2cc1NC(=O)c1coc(-c2cnn(C)c2)n1 (single isomer, unassigned) [Example 252, N-(7-ethoxy-2-((tetrahydrofuran-3-yl)methyl)imidazo[1,2-a]pyridin-6-yl)-2-(1-methyl-1H-pyrazol-4-yl)oxazole-4-carboxamide]	0.001 µM
COc1cc(NC(=O)c2cccc(C(F)F)n2)cn2cc(C3CC3(F)F)nc12 (single isomer, unassigned) [Example 513, N-(2-(2,2-difluorocyclopropyl)-8-methoxyimidazo[1,2-a]pyridin-6-yl)-6-(difluoromethyl)picolinamide]	0.015 µM
COc1cc(NC(=O)c2cccc(C(F)F)n2)cn2cc(C3CC3(F)F)nc12 (single isomer, unassigned) [Example 514, N-(2-(2,2-difluorocyclopropyl)-8-methoxyimidazo[1,2-a]pyridin-6-yl)-6-(difluoromethyl)picolinamide]	0.016 µM
CC(COc1cc2nc(C3CC3)cn2cc1NC(=O)c1cccc(C(F)F)n1)n1ccccc1=O (stereo not shown) [Example 6, N-(2-cyclopropyl-7-(2-(2-oxopyridin-1(2H)-yl)propoxy)imidazo[1,2-a]pyridin-6-yl)-6-(difluoromethyl)picolinamide]	0.19 µM
O=C(Nc1cn2cc(C3CC3)nc2cc1O)c1cccc(C(F)F)n1 [Example 10, N-(2-cyclopropyl-7-hydroxyimidazo[1,2-a]pyridin-6-yl)-6-(difluoromethyl)picolinamide]	0.059 µM
CC[C@@H]1[C@H](F)C(=O)N[C@@H]1COc1cc2nc(C3CC3)cn2cc1NC(=O)c1cccc(C(F)F)n1 [Example 11, N-(2-cyclopropyl-7-(((2S,3S,4S)-3-ethyl-4-fluoro-5-oxopyrrolidin-2-yl)methoxy)imidazo[1,2-a]pyridin-6-yl)-6-(difluoromethyl)picolinamide]	0.079 µM
CCOc1cc(NC(=O)c2cccc(C(F)F)n2)cn2cc(C3CC3)nc12 [Example 28, N-(2-cyclopropyl-8-ethoxyimidazo[1,2-a]pyridin-6-yl)-6-(difluoromethyl)picolinamide]	0.043 µM
CCOc1cc2nc(C3CC3)c(F)n2cc1NC(=O)c1cccc(C(F)F)n1 [Example 29, N-(2-cyclopropyl-7-ethoxy-3-fluoroimidazo[1,2-a]pyridin-6-yl)-6-(difluoromethyl)picolinamide]	0.023 µM
O=C(Nc1ccc2nc(C3CC3)cn2c1)c1cccc(C(F)F)n1 [Example 30, N-(2-cyclopropylimidazo[1,2-a]pyridin-6-yl)-6-(difluoromethyl)picolinamide]	0.048 µM
O=C(Nc1cn2cc(C3CC3)nc2cn1)c1cccc(C(F)F)n1 [Example 31, N-(2-cyclopropylimidazo[1,2-a]pyrazin-6-yl)-6-(difluoromethyl)picolinamide]	0.089 µM
CCOc1cc2nc(CC)cn2cc1NC(=O)c1cccc(NC(C)=O)n1 [Example 32, 6-acetamido-N-(7-ethoxy-2-ethylimidazo[1,2-a]pyridin-6-yl)picolinamide]	0.064 µM
CCOc1cc2nc(CC)cn2cc1NC(=O)c1ccc(C)c(C)n1 [Example 34, N-(7-ethoxy-2-ethylimidazo[1,2-a]pyridin-6-yl)-5,6-dimethylpicolinamide]	0.023 µM
CCOc1cc2nc(CC)cn2cc1NC(=O)c1ccc(F)c(F)c1 [Example 35, N-(7-ethoxy-2-ethylimidazo[1,2-a]pyridin-6-yl)-3,4-difluorobenzamide]	2.5 µM

SMILES	IC50
CCOc1cc2nc(CC)cn2cc1NC(=O)c1nc(C(F)(F)F)ccc1F [Example 36, N-(7-ethoxy-2-ethylimidazo[1,2-a]pyridin-6-yl)-3-fluoro-6-(trifluoromethyl)picolinamide]	0.26 µM
CCOc1cc2nc(CC)cn2cc1NC(=O)c1ccc2c(c1)COC2 [Example 37, N-(7-ethoxy-2-ethylimidazo[1,2-a]pyridin-6-yl)-1,3-dihydroisobenzofuran-5-carboxamide]	1.7 µM
CCOc1cc2nc(CC)cn2cc1NC(=O)c1cc2n(n1)CCC2 [Example 38, N-(7-ethoxy-2-ethylimidazo[1,2-a]pyridin-6-yl)-5,6-dihydro-4H-pyrrolo[1,2-b]pyrazole-2-carboxamide]	2.6 µM
CCOc1cc2nc(CC)cn2cc1NC(=O)c1cccc2c1OCCN2C [Example 39, N-(7-ethoxy-2-ethylimidazo[1,2-a]pyridin-6-yl)-4-methyl-3,4-dihydro-2H-benzo[b][1,4]oxazine-8-carboxamide]	0.016 µM
CCOc1cc2nc(CC)cn2cc1NC(=O)c1ccc(F)cc1F [Example 40, N-(7-ethoxy-2-ethylimidazo[1,2-a]pyridin-6-yl)-2,4-difluorobenzamide]	0.34 µM
CCOc1cc2nc(CC)cn2cc1NC(=O)c1ccc2c(c1)NC(=O)C2 [Example 41, N-(7-ethoxy-2-ethylimidazo[1,2-a]pyridin-6-yl)-2-oxoindoline-6-carboxamide]	0.14 µM
CCOc1cc2nc(CC)cn2cc1NC(=O)c1ccc2c(c1)OCC2 [Example 42, N-(7-ethoxy-2-ethylimidazo[1,2-a]pyridin-6-yl)-2,3-dihydrobenzofuran-6-carboxamide]	1.3 µM
CCOc1cc2nc(CC)cn2cc1NC(=O)c1ccc2c(c1)COCC2 [Example 43, N-(7-ethoxy-2-ethylimidazo[1,2-a]pyridin-6-yl)isochromane-7-carboxamide]	2.6 µM
CCOc1cc2nc(CC)cn2cc1NC(=O)c1cc(C)c(C)cn1 [Example 45, N-(7-ethoxy-2-ethylimidazo[1,2-a]pyridin-6-yl)-4,5-dimethylpicolinamide]	2.3 µM
CCOc1cc2nc(CC)cn2cc1NC(=O)c1ccc(Cl)cn1 [Example 46, 5-chloro-N-(7-ethoxy-2-ethylimidazo[1,2-a]pyridin-6-yl)picolinamide]	0.083 µM
CCOc1cc2nc(CC)cn2cc1NC(=O)c1ccc2c(c1)CCOC2 [Example 47, N-(7-ethoxy-2-ethylimidazo[1,2-a]pyridin-6-yl)isochromane-6-carboxamide]	1.1 µM
CCOc1cc2nc(CC)cn2cc1NC(=O)c1nc(C)c(C)s1 [Example 48, N-(7-ethoxy-2-ethylimidazo[1,2-a]pyridin-6-yl)-4,5-dimethylthiazole-2-carboxamide]	2 µM
CCOc1cc2nc(CC)cn2cc1NC(=O)c1ccc(F)c(C(F)(F)F)n1 [Example 51, N-(7-ethoxy-2-ethylimidazo[1,2-a]pyridin-6-yl)-5-fluoro-6-(trifluoromethyl)picolinamide]	0.21 µM
COc1cc2nc(C3CC3)cn2cc1NC(=O)c1cccn(C)c1=O [Example 52, N-(2-cyclopropyl-7-methoxyimidazo[1,2-a]pyridin-6-yl)-1-methyl-2-oxo-1,2-dihydropyridine-3-carboxamide]	0.033 µM
CCOc1cc2nc(C3CC3)cn2cc1NC(=O)c1cc2ncccn2n1 [Example 53, N-(2-cyclopropyl-7-ethoxyimidazo[1,2-a]pyridin-6-yl)pyrazolo[1,5-a]pyrimidine-2-carboxamide]	0.11 µM
CCOc1cc2nc(C3CC3)cn2cc1NC(=O)c1cccc(C(F)(F)F)c1 [Example 54, N-(2-cyclopropyl-7-ethoxyimidazo[1,2-a]pyridin-6-yl)-3-(trifluoromethyl)benzamide]	0.14 µM
CCOc1cc2nc(C)c(C)n2cc1NC(=O)c1cccc(C(F)(F)F)n1 [Example 58, N-(7-ethoxy-2,3-dimethylimidazo[1,2-a]pyridin-6-yl)-6-(trifluoromethyl)picolinamide]	0.11 µM
